From publication PMC9574867, “Discovery and Characterization of Synthesized and FDA-Approved Inhibitors of Clostridial and Bacillary Collagenases” (Journal of Medicinal Chemistry, 2022)
Converted amounts (≈) assume the structure as drawn. Like-named read-outs stand apart in the source and are kept apart here.

Legend:
ColA-CU [1] = molecular target: T1, ColA-CU (Bacillus cereus, UniProt Q81BJ6); assay: biochemical; format: biochemical, B. cereus strain ATCC14579; conditions: read-out: Percent inhibition of ColA-CU
ColH-PD [2] = molecular target: T2, ColH-PD (Hathewaya histolytica, UniProt Q46085); assay: biochemical; format: biochemical, C. histolyticum; conditions: read-out: Percent inhibition of ColH-PD
HDAC-8 = molecular target: T3, HDAC-8 (Homo sapiens, UniProt Q9BY41); assay: Human off-target inhibition, HDAC-8; format: biochemical
T3 sequence (Q9BY41 1-377): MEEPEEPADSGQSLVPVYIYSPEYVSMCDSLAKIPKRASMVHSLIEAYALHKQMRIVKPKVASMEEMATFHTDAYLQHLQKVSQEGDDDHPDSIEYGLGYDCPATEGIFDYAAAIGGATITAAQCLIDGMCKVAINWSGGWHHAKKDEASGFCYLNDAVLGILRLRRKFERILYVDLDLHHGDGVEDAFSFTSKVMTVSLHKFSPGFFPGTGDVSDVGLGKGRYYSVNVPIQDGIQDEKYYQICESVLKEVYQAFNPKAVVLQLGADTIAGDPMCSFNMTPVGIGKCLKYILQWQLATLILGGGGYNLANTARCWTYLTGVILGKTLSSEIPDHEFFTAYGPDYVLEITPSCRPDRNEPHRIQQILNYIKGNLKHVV
Description: (§1) To assess the selectivity of the compounds over human MMPs and on other bacterial collagenases, selected compounds were tested against ColG-CU and ColH-PD from C. histolyticum and ColA-CU from B. cereus strain ATCC14579. In addition, the compounds were tested on catalytic domains of three human MMPs, which are characterized by different depths of the S1′ binding pocket (MMP-1 (shallow), −2 (intermediate), and −3 (deep)). They were also tested against other important human off-targets, which are involved in gene expression and the processing of TNF-α; these include HDAC-3, -8, TACE (ADAM-17),[33],[34] and COX-1.

MMP-2 = molecular target: T4, MMP-2 (Homo sapiens, UniProt P08253); assay: MMP inhibition assay, MMP-2; format: biochemical
T4 construct: catalytic domains of three human MMPs; purchased Sigma-Aldrich
Description: as §1
(§2) The MMP inhibition assay (Sigma-Aldrich, Saint Louise, MO) was performed as previously reported and in accordance with the manufacturer’s instructions. The fluorescence signals were measured in a CLARIOstar plate reader (BMG LABTECH, Ortenberg, Germany) at a concentration of 100 μM.

MMP-1 = molecular target: T5, MMP-1 (Homo sapiens, UniProt P03956); assay: MMP inhibition assay, MMP-1; format: biochemical
T5 construct: catalytic domains of three human MMPs; purchased Sigma-Aldrich
T5 sequence (P03956 98-276 limits assumed): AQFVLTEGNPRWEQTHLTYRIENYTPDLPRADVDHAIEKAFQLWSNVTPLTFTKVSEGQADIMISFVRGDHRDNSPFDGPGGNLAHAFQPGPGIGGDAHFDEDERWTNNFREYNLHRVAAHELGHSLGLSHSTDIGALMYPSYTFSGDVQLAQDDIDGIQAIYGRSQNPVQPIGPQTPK
Description: as §1, §2

HDAC-3 = HDAC-3 (Homo sapiens, UniProt O15379); assay: Human off-target inhibition, HDAC-3; format: biochemical
Description: as §1

B. cereus AH187 = assay: B. cereus growth inhibition assay; format: cell-based; conditions: Bacillus cereus, read-out: MIC50 (µM) AH187
[3] = tested on: B. cereus AH187 infection; format: in vivo, Galleria mellonella
ColG-CU [4] = molecular target: T6, ColG-CU (Hathewaya histolytica, UniProt Q9X721); assay: biochemical; format: biochemical, C. histolyticum; conditions: read-out: Percent inhibition of ColG-CU
ColQ1-CU [5] = molecular target: T7, ColQ1-CU (Bacillus cereus, UniProt B9J3S4); assay: biochemical; design: species or system B. cereus strain Q1
MMP-3 = molecular target: T8, MMP-3 (Homo sapiens, UniProt P08254); assay: MMP inhibition assay, MMP-3; format: biochemical
T8 construct: catalytic domains of three human MMPs; purchased Sigma-Aldrich
Description: as §1, §2

TACE (ADAM-17) = TACE (ADAM-17) (Homo sapiens, UniProt P78536); assay: Human off-target inhibition, TACE; format: biochemical
Description: as §1

[6] = tested on: NHDF cells infected with B. cereus; assay: NHDF infection model, cell morphology/attachment and fibrillar collagen (picrosirius red); format: cell-based, human; conditions: B. cereus infection, 5 h
[7] = tested on: MDCK II cells infected with B. cereus AH187; format: cell-based, canine
ColQ1-FL = ColQ1-FL (Bacillus cereus, UniProt B9J3S4); format: biochemical; conditions: 12.5–1.5 μM tested, SDS-PAGE
[8] = tested on: B. cereus collagenases released in the NHDF infection model; format: cell-based, B. cereus AH187
in vitro [9] = conditions: human, HEK293 cells (embryonal kidney)
COX-1 = COX-1 (Homo sapiens, UniProt P23219); assay: Human off-target inhibition, COX-1; format: biochemical
Description: as §1

in vitro [10] = conditions: human, HepG2 cells (hepatocellular carcinoma)
ColA-CU [11] = molecular target: T1, ColA-CU; format: biochemical, B. cereus; conditions: rapid dilution
in vitro [12] = conditions: dog, MDCK II cells (Madin–Darby canine kidney II)
ColG-CU [13] = molecular target: T6, ColG-CU; format: biochemical, C. histolyticum; conditions: rapid dilution
ColQ1-CU [14] = molecular target: T7, ColQ1-CU; format: biochemical, B. cereus
ColH-PD [15] = molecular target: T2, ColH-PD; format: biochemical, C. histolyticum
in vitro [16] = conditions: human, NHDF cells (normal human dermal fibroblasts)
[17] = AH187, BHI medium, 37 °C, 48 h, 200–3 μM

T1 sequence (Q81BJ6 93-764): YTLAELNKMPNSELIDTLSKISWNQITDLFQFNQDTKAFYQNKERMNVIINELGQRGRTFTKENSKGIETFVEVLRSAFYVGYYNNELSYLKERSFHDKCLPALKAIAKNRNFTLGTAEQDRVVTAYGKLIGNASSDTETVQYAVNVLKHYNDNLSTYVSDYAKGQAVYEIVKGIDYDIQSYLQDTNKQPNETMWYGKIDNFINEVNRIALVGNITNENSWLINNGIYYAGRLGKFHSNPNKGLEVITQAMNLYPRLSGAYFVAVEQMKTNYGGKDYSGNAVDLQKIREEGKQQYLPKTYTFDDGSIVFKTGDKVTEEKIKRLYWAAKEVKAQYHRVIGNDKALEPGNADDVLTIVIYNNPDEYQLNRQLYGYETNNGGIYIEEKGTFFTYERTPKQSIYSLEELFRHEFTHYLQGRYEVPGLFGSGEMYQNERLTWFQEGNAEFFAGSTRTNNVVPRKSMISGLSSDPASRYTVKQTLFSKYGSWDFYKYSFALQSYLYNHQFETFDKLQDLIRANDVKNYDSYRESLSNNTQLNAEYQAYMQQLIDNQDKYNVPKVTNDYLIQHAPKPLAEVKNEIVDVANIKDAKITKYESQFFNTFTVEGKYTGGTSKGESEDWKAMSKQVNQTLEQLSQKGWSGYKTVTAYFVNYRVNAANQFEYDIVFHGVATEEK
T7 sequence (B9J3S4 94-765 limits assumed): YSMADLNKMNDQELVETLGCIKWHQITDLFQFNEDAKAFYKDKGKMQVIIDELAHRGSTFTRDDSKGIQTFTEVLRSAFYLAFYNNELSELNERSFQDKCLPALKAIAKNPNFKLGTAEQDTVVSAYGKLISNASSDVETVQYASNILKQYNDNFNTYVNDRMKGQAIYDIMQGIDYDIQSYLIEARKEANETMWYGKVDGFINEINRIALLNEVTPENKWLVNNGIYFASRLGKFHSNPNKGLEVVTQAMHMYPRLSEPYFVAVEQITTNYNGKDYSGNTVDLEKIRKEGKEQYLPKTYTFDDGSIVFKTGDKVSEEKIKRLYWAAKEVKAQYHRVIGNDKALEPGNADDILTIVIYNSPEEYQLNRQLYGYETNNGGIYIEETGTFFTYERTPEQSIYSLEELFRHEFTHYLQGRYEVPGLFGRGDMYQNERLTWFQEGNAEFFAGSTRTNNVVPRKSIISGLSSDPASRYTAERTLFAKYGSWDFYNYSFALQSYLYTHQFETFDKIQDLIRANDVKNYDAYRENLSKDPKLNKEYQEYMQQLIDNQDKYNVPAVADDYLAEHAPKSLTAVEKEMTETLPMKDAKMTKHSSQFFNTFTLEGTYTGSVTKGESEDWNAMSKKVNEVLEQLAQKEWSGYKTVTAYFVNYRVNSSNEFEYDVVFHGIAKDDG
T6 sequence (Q9X721 111-786): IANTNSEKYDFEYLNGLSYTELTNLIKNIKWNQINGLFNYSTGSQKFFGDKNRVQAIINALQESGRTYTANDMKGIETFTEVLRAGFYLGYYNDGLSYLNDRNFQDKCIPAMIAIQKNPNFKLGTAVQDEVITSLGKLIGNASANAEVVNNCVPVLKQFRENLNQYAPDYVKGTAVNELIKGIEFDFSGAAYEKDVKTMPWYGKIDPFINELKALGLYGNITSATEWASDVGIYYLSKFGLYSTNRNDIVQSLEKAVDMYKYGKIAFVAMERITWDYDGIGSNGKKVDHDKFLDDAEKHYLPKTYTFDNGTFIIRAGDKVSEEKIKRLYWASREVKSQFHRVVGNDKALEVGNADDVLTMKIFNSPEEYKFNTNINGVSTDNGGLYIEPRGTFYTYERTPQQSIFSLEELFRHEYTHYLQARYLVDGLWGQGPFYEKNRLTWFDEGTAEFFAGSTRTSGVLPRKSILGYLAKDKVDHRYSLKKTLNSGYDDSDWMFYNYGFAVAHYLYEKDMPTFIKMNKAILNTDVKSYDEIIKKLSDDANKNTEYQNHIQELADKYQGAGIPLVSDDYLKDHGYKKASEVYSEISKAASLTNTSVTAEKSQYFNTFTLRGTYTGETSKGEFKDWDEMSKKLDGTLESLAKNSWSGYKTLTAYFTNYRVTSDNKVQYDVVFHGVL
T2 sequence (Q46085 331-721 limits assumed): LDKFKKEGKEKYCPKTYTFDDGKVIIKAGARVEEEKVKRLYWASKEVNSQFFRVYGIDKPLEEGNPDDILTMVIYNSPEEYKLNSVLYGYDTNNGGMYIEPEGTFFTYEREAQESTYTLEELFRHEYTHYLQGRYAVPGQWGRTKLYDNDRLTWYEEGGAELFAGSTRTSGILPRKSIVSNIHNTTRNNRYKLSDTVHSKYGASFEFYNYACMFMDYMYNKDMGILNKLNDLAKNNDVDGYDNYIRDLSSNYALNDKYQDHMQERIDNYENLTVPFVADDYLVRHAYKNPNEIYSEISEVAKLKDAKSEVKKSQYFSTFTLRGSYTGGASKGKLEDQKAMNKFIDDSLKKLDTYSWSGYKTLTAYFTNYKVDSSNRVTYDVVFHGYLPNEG
ColQ1-FL, sequence (B9J3S4 94-965 limits assumed): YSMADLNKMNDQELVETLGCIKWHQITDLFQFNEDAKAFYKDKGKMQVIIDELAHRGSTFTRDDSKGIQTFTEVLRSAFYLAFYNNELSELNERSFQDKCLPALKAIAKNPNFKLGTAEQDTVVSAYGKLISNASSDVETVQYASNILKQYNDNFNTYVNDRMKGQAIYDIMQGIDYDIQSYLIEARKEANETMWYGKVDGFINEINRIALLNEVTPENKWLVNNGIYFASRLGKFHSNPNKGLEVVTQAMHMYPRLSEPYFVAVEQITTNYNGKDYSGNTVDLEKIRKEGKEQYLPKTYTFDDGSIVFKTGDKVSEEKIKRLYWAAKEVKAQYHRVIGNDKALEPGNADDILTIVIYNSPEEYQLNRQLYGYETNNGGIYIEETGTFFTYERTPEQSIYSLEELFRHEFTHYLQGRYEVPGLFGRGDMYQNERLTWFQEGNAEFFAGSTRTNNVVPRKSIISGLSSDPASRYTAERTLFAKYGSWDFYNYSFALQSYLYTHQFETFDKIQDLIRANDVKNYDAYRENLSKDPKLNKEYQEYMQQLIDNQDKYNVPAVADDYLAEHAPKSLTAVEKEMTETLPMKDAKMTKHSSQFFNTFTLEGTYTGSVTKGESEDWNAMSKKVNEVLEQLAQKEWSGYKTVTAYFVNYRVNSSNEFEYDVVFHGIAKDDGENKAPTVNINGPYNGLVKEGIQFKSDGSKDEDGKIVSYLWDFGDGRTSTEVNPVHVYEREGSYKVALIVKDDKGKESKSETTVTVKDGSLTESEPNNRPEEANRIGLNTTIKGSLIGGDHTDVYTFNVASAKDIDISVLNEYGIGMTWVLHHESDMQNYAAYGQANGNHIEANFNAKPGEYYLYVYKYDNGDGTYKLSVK
T4 sequence (P08253 110-444 limits assumed): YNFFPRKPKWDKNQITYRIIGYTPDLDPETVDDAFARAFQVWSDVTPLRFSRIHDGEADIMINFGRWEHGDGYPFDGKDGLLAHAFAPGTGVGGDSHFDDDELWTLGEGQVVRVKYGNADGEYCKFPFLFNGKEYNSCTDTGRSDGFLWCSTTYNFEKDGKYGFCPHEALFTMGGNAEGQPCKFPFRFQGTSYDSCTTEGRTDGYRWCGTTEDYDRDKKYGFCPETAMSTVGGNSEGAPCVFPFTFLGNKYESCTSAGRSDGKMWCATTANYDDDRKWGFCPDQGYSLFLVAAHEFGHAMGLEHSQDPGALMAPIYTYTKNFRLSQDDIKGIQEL
HDAC-3, sequence (O15379 whole entry): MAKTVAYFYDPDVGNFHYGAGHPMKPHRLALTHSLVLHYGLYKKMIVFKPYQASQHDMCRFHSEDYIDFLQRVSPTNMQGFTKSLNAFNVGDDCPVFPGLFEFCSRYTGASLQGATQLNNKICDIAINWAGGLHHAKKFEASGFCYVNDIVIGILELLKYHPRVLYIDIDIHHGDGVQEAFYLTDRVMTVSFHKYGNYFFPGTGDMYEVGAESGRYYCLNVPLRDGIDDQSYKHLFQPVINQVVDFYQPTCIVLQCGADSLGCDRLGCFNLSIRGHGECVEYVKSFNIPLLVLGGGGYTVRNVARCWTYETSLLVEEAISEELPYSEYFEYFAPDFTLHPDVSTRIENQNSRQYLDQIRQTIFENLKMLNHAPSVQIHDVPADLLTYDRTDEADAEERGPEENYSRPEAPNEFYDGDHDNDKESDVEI
HDAC-3, sequence (Q9Y618 395-489 partner limits assumed): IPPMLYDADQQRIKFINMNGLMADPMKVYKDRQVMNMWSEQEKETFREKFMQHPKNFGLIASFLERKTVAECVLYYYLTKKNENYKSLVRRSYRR
TACE (ADAM-17), sequence (P78536 215-824): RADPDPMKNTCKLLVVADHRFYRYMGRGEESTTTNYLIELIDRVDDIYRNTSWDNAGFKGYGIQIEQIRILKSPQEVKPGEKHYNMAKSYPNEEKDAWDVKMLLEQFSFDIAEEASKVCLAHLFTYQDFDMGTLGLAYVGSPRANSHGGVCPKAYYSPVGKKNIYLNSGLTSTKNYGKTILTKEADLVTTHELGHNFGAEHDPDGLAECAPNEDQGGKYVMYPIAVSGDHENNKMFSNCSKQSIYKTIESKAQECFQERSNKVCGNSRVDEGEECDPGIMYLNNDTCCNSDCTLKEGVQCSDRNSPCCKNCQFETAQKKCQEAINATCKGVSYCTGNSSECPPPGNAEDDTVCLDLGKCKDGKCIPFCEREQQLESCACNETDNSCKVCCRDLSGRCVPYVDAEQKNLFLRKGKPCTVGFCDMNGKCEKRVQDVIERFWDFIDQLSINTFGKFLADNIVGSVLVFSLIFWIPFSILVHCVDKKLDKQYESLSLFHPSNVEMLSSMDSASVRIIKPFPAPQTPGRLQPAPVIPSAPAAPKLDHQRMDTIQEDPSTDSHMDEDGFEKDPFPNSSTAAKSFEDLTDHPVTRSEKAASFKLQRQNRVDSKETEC
T8 sequence (P08254 100-272 limits assumed): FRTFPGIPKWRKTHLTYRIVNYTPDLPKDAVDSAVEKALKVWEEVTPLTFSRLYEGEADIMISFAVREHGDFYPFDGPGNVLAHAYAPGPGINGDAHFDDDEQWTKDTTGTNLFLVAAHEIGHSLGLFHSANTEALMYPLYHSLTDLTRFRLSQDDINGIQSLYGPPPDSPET

Question: With NCCCC(O)(P(=O)([O-])O)P(=O)(O)O.[Na+] [Alendronate sodium, reference compound] as the compound, how does the inhibition at 100 µM (ColA-CU [1]) read?
Answer: Its inhibition at 100 µM is 18 ± 4%.

Question: What about the inhibition at 100 µM (ColH-PD [2]) of the same compound?
Answer: The inhibition at 100 µM was 25 ± 5%.

Question: And the IC50 (HDAC-8)?
Answer: Its IC50 is over 100 µM.

Question: What about the IC50 (MMP-2) of the same compound?
Answer: The IC50 was over 100 µM.

Question: What about the IC50 (MMP-1) of the same compound?
Answer: The IC50 was over 100 µM.

Question: And the IC50 (HDAC-3)?
Answer: The IC50 was over 100 µM.

Question: What about the MIC50 (B. cereus AH187; AH187, 48 h) of the same compound?
Answer: The MIC50 was 200 µM.

Question: And the “Increase in survival of infected larvae” value ([3]; in vivo)?
Answer: The value was 40%.

Question: And the “Survival of infected larvae vs control without inhibitor” value ([3]; in vivo)?
Answer: The value was “ameliorated the survival of the larvae in a dose-dependent manner”.

Question: And the inhibition at 100 µM (ColG-CU [4])?
Answer: Its inhibition at 100 µM is 28 ± 7%.

Question: What about the inhibition at 100 µM (ColQ1-CU [5]) of the same compound?
Answer: The inhibition at 100 µM was 76 ± 1%.

Question: What about the IC50 (MMP-3) of the same compound?
Answer: Its IC50 is over 100 µM.

Question: What about the IC50 (TACE (ADAM-17)) of the same compound?
Answer: The IC50 was over 100 µM.

Question: With O=P(O)(O)c1nc2ccc(Br)cc2nc1P(=O)(O)O [Compound 10, (6-Bromoquinoxaline-2,3-diyl)bis(phosphonic acid)] as the compound, how does the “Effect on cell morphology and ECM collagen content of infected NHDF cells” value [6] read?
Answer: The value was “smaller effect at all concentrations tested (except for 10, which resulted in higher cell viability and attachment at 100 μM)”.

Question: And the “TEER of infected MDCK II cells” value [7]?
Answer: Its value is “failed to sustain the TEER of the infected cells”.

Question: What about the MIC50 (B. cereus AH187; [17]) of the same compound?
Answer: Its MIC50 is 200 µM (≈ 73.8 µg/mL).

Question: And the IC50 (ColQ1-CU [5])?
Answer: Its IC50 is 2.5 ± 0.2 µM.

Question: What about the “Protection of Col I chains from cleavage by ColQ1-FL” value (ColQ1-FL) of the same compound?
Answer: Its value is “showed inhibition only at 12.5 μM”.

Question: What about the “Inhibitory effect on gelatinolytic activity of secreted collagenases” value [8] of the same compound?
Answer: Its value is “inhibited the collagenase activity toward gelatin only marginally at 100 μM”.

Question: Which “Effect on cell morphology and ECM collagen content of infected NHDF cells” value [6] does the source give for Cc1ccc2nc(P(=O)(O)O)c(P(=O)(O)O)nc2c1 [Compound 11, (6-Methylquinoxaline-2,3-diyl)bis(phosphonic acid)] here?
Answer: Its value is “smaller effect at all concentrations tested”.

Question: What about the MIC50 (B. cereus AH187; [17]) of the same compound?
Answer: Its MIC50 is 200 µM (≈ 60.8 µg/mL).

Question: And the IC50 (ColQ1-CU [5])?
Answer: Its IC50 is 3.4 ± 0.1 µM.

Question: What about the inhibition at 100 µM (ColQ1-CU [5]) of the same compound?
Answer: The inhibition at 100 µM was 58%.

Question: And the “Protection of Col I chains from cleavage by ColQ1-FL” value (ColQ1-FL)?
Answer: Its value is “inhibited the collagenase activity at all concentrations tested”.

Question: What about the “Inhibitory effect on gelatinolytic activity of secreted collagenases” value [8] of the same compound?
Answer: The value was “inhibited the collagenase activity toward gelatin only marginally at 100 μM”.

Question: Which results are given for O=P(O)(O)c1nc2ccc(-c3ccc(Cl)cc3)cc2nc1P(=O)(O)O [Compound 15, (6-(4-Chlorophenyl)quinoxaline-2,3-diyl)bis(phosphonic acid)]?
Answer: IC50 (in vitro [9]): > 100 µM; Concentration showing dose-dependent effects on NHDF morphology, fibrillar ECM collagen content and LDH release [6]: ≥ 100 μM; inhibition at 100 µM (ColA-CU [1]; 100 μM): 86 ± 8%; IC50 (COX-1): > 100 µM; IC50 (in vitro [10]): > 100 µM; inhibition at 100 µM (ColH-PD [2]; 100 μM): 97 ± 5%; TEER of infected MDCK II cells [7]: preserve the TEER value; Reversibility of inhibition, ColA-CU (ColA-CU [11]): progress curve typical for slowly dissociating inhibitors; IC50 (in vitro [12]): > 200 µM; Reversibility of inhibition, ColG (ColG-CU [13]): rapidly reversible inhibitors; IC50 (HDAC-8): > 100 µM; Residual activity after rapid dilution (ColQ1-CU [14]; 30 min preincubation at 10-fold IC50, 100-fold dilution): less than 9%; Reversibility of inhibition, ColQ1-CU (ColQ1-CU [14]; rapid dilution): irreversible or very slowly dissociating inhibitors; IC50 (MMP-2): > 100 µM; IC50 (MMP-1): > 100 µM; IC50 (HDAC-3): > 100 µM; MIC50 (B. cereus AH187; [17]): 100 µM (≈ 40.1 µg/mL); Effect on survival of infected larvae ([3]; 25 μM): reduced effect; Increase in survival of infected larvae ([3]; 100 μM): about 35%; Survival of infected larvae vs control without inhibitor ([3]; 37 °C, 3 days): ameliorated the survival of the larvae in a dose-dependent manner; inhibition at 100 µM (ColG-CU [4]; 100 μM): 70 ± 8%; IC50 (ColQ1-CU [5]): 10.5 µM; Protection of Col I chains from cleavage by ColQ1-FL (ColQ1-FL): inhibited the collagenase activity at all concentrations tested; Reversibility of inhibition, ColH (ColH-PD [15]): reversed compared to ColA; IC50 (MMP-3): > 100 µM; IC50 (in vitro [16]): > 200 µM; IC50 (TACE (ADAM-17)): > 100 µM; Inhibitory effect on gelatinolytic activity of secreted collagenases [8]: clear dose-dependent inhibitory effect on gelatin turnover
